# Test results taken from article doi:10.1101/2025.09.18.676322v1 (bioRxiv, 2025).
# Residues, ends and D or L forms follow the SMILES beside them.
# Assays:
# [1] = target: T1, TREM2 (Homo sapiens, UniProt Q9NZC2); assay: Spectral shift assay of TREM2 binding; settings: for TREM2 binding in spectral shift analysis (in words): labeled TREM2 10 nM, PBST pH 7.4, 10 min at room temperature
# T1 sequence (Q9NZC2 19-174 limits assumed): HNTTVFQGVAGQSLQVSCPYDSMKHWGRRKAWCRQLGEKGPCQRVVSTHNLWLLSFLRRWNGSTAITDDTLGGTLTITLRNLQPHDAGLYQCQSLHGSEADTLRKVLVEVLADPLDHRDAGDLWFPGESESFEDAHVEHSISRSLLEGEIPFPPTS
# [2] = reference compound of the assay; cited from earlier work
# [3] = reference compound of the assay; cited from earlier work; remark: listed apart in the source
# [4] = Caco-2 cell permeability; assay type: in vitro ADME
# [5] = LogD7.4 by miniaturized shake-flask procedure; assay type: physicochemical; settings: miniaturized shake-flask procedure at pH 7.4
# [6] = Stability in simulated intestinal fluid; assay type: in vitro ADME; settings: pH 6.5
# [7] = Stability in human plasma; assay type: in vitro ADME
# [8] = Stability in rat liver microsomes; assay type: in vitro ADME
# [9] = Stability in simulated gastric fluid; assay type: in vitro ADME; settings: pH 1.6
compound,measurement,setting,value
cyclo(GNSVNVETGARL) [TP1],TREM2 binding in spectral shift analysis (in words),[1],measurable responses
cyclo(GSSVNVQTGEVL) [TP2],TREM2 binding in spectral shift analysis (in words),[1],measurable responses
CC(C)[N+](C)(CCOC(=O)C1c2ccccc2Oc2ccccc21)C(C)C [propantheline],"Human plasma stability, t1/2",[2],2.6 min
cyclo(LPGRLVSLPDGRHLC) [TP3],TREM2 binding in spectral shift analysis (in words),[1],did not exhibit detectable binding
CC[C@H]1OC(=O)[C@H](C)[C@@H](O[C@H]2C[C@@](C)(OC)[C@@H](O)[C@H](C)O2)[C@H](C)[C@@H](O[C@@H]2O[C@H](C)C[C@H](N(C)C)[C@H]2O)[C@](C)(O)C[C@@H](C)C(=O)[C@H](C)[C@@H](O)[C@]1(C)O [erythromycin],"Stability in intestinal simulated fluids, t1/2",[3],453 min
CC(C)[C@@H]1NC(=O)CNC(=O)[C@H](C)NC(=O)[C@H](CO)NC(=O)[C@H](C(C)C)NC(=O)[C@H](CO)NC(=O)[C@H](C(C)C)NC(=O)[C@H](C)NC(=O)CNC(=O)[C@H](CC(=O)O)NC(=O)[C@H](CCCCN)NC(=O)[C@H](CCC(=O)O)NC(=O)[C@H]([C@@H](C)O)NC(=O)[C@H]([C@@H](C)O)NC1=O [TP4] (cyclo(AGVTTEKDGAVSVS); ring closure inferred),Papp A→B,[4],1.32 ×10⁻⁶ cm/s
same,Papp B→A,[4],2.47 ×10⁻⁶ cm/s
same,LogD7.4,[5],1.03
same,half-life,[6],349 min
same,TREM2 binding in spectral shift analysis (in words),[1],measurable responses
same,"equilibrium dissociation constant (Kd), in words","[1]; summary statement in the introduction, assay not named",sub-millimolar range
same,remaining at 1 h,[7],83.1%
same,half-life,[8],236 min
same,half-life,[9],55.8 min
